Patent US20190257816A1, “DIFFERENTIAL BH3 MITOCHONDRIAL PROFILING” (Eutropics Pharmaceuticals, Inc., priority 2013, published 2019)
Values joined by “and” are separate entries in the source; they are usually repeats but may differ in a detail not shown here. Equal entries are not always repeated. Where no end group is shown, it is not given here.

Experiments:
[1] = tested on: DHL6; test: MTS viability assay, DHL6; assay type: cell-based; conditions: DHL6, 48 hours
Description: (§1) The mitochondrial profiling assay was carried out in three steps: (1) cell preparation and counting, (2) cell permeabilization and peptide treatment, and (3) fluorescent readout (FIG. 1). Cells are suspended in Mitochondria loading Buffer with 0.005% digitonin, loaded with the cationic dye JC-1 (1 μM), and treated with 100 μM of one of the BH3 domain peptides: Bim, Bad, Noxa, and Puma. MOMP is followed by full mitochondrial membrane depolarization (ΔΨm), which is measured by treating the cells with the ionophore FCCP (p-trifluoromethoxy carbonyl cyanide phenyl hydrazone). Peptide (and FCCP) addition results in a decrease in membrane potential in suitably primed cells and is measured as a decrease in JC-1 fluorescence in a 384 well plate on a TecanGenios plate reader using an excitation of 535 nm and an emission of 590 nm.
(§2) Tables 3 and 4 show the percent priming of various cell lines, as determined by measuring the signal intensity of the JC-1 dye which is an indicator of mitochondrial depolarization. […] Viability was measured using an MTS assay. The IC50 is in μM.

[2] = tested on: NCI-H929; test: MTS viability assay, NCI-H929; assay type: cell-based; conditions: Homo sapiens; NCI-H929, 48 hours
Description: as §1, §2

[3] = tested on: LPN3; test: MTS viability assay, LPN3; assay type: cell-based; conditions: LPN3, 48 hours
Description: as §1, §2

[4] = tested on: DHL10; test: MTS viability assay, DHL10; assay type: cell-based; conditions: for IC50: DHL10 (Bax/Bak deficient), 48 hours
Description: as §1, §2

[5] = tested on: Mcl-1 1780; test: MTS viability assay, Mcl-1 1780; assay type: cell-based; conditions: for IC50: Mcl1-1780, Mcl-1 1780, 48 hours
Description: as §1, §2

[6] = tested on: Bcl-2 1863; test: MTS viability assay, Bcl-2 1863; assay type: cell-based; conditions: Bcl-2 primed cells (Bcl-2 1863)
[7] = tested on: multiple myeloma; test: Patient M-protein (M-spike) response to Velcade/Bortezomib treatment; assay type: in vivo, human; parameters: key to Δ M-Spike: % decrease in M-protein over treatment period; conditions: for Δ M-Spike: Velcade/Bortezomib combination regimen
From the text: To date, we have obtained Mitochondrial profiles from 14 multiple myeloma or plasma cell leukemia patients. Each of the samples tested came from patients treated with one of several different Velcade/Bortezomib combination regimens. The samples listed in Table 5 are viably frozen from a tissue bank or from fresh bone marrow delivered within a few hours of the biopsy. CD138 cells are purified from either source using two similar procedures that have been optimized for each respective tissue type. Profiles on frozen cells are performed immediately following purification. Profiles on fresh cells are performed immediately or on viably frozen CD138 positive cells. […] M-protein is an indication of myeloma activity and is widely used diagnostic marker of the severity of the disease. The patient M-protein response is converted to a percentage of the best response seen among the group of patients tested. The M-spike response is calculated as a percent decrease in M-protein over a given treatment period. […] The percent decrease is calculated with the following equation. The percent best response is used to normalize the data to a fixed scale where 100% is the best response and 0% is the worst response. It is calculated with the equation below. Cancer cells collected from a patient undergoing Velcade based treatment were mitochondrial profiled at three time points during the course of treatment (October 2010, January 2011, and May 2011). The profile was used to monitor the apoptotic predisposition of the CD-138 positive MM cells during treatment.

[8] = tested on: OPM2/Luciferase cells; test: Tumor burden by bioluminescence imaging in xenografted mice; assay type: in vivo; conditions: OPM2/Luciferase xenograft in SCID mice, velcade 1 mpk IV 3×/week, compared with vehicle-only
Description: Mice were injected with 75 mg/kg D-luciferin, anesthetized, and imaged 10 minutes after substrate injection. Total body luminescence was determined using a standardized region of interest encompassing the entire mouse using the Living Images software package (Caliper Life Sciences).
OPM2/Luciferase cells were transferred to SCID mice and allowed to reach tumor burden. Xenografted mice were treated with EU-5148 (20 mpk IV, 3×/week), velcade for (1 mpk IV, 3×/week), or a combination of these treatments. […] The combination treatment of EU-5148 with Velcade results in 92% reduction in tumor cell burden over same time period.

[9] = tested on: NCI-H929; test: Mitochondrial profiling assay (JC-1), NCI-H929; assay type: cell-based; conditions: NCI-H929, percent priming, JC-1, 100 μM peptide
Description: as §1, §2

[10] = tested on: DHL6; test: Mitochondrial profiling assay (JC-1), DHL6; assay type: cell-based; conditions: DHL6, percent priming, JC-1, 100 μM peptide
Description: as §1, §2

[11] = tested on: LPN3; test: Mitochondrial profiling assay (JC-1), LPN3; assay type: cell-based; conditions: LPN3, percent priming, JC-1, 100 μM peptide
Description: as §1, §2

[12] = tested on: Mcl-1 1780; test: Mitochondrial profiling assay (JC-1), Mcl-1 1780; assay type: cell-based; conditions: Mcl-1 1780, percent priming, JC-1, 100 μM peptide
Description: as §1, §2

[13] = molecular target: BCL-2 (Homo sapiens, UniProt P10415); test: BH3 domain binding affinities to BCL-2
Chain of BCL-2 (P10415 whole entry, the tested form may be a part): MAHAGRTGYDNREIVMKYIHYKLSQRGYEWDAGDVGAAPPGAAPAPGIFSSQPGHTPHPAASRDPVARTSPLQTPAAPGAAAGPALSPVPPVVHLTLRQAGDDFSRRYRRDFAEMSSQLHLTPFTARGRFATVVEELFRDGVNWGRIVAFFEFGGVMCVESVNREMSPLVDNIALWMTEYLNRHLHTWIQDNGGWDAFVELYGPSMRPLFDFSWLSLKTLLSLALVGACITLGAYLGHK

[14] = molecular target: BCL-XL (Homo sapiens, UniProt Q07817); test: BH3 domain binding affinities to BCL-XL
Chain of BCL-XL (Q07817 whole entry, the tested form may be a part): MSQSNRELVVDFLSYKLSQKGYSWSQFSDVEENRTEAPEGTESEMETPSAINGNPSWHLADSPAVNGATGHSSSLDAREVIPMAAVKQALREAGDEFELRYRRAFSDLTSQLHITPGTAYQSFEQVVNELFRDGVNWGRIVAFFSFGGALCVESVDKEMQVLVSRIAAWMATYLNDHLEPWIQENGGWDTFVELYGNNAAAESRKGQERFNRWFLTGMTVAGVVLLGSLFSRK

CC1(C)CCC(c2ccc(Cl)cc2)=C(CN2CCN(c3ccc(C(=O)NS(=O)(=O)c4ccc(N[C@H](CCN5CCOCC5)CSc5ccccc5)c(S(=O)(=O)C(F)(F)F)c4)cc3)CC2)C1 [ABT-263, Navitoclax]
IC50 [1]: < 1 µM
IC50 [2]: 4 µM
IC50 [3]: 4.1 µM
IC50 [4]: > 25 µM
cell-killing activity (in words) ([4]; DHL-10 cells deficient in the Bax-Bak proteins): not responsive
IC50 [5]: 17 µM
cell-killing activity (in words) ([5]; Mcl-1 primed cells (Mcl-1 1780)): ineffective
cell-killing activity (in words) [6]: effective

COC1=CC(c2cc3ccccc3[nH]2)=N/C1=C\c1[nH]c(C)cc1C [Obatoclax]
IC50 [1]: 1.2 µM
IC50 [2]: 1 µM
IC50 [4]: 0.8 µM
IC50 [5]: 1.5 µM

CC(C)C[C@H](NC(=O)[C@H](Cc1ccccc1)NC(=O)c1cnccn1)B(O)O [Velcade, Bortezomib]
Δ M-Spike ([7]; Patient No. 3039T): 64.71
Δ M-Spike ([7]; Patient No. 3098T): 62.50
Δ M-Spike ([7]; Patient No. 3161T): 12.90
Δ M-Spike ([7]; Patient No. 3187T): 65.22
Δ M-Spike ([7]; Patient No. 3188T): 93.03
Δ M-Spike ([7]; Patient No. 3191T): 57.69
Δ M-Spike ([7]; Patient No. 3201T): 87.50
Δ M-Spike ([7]; Patient No. 3213T): −10.00
Δ M-Spike ([7]; Patient No. 3221T): 52.38
M-Spike ([7]; TB# 3098T2, Jan. 27, 2011, patient undergoing Velcade based treatment): 0.8 g/dL
M-Spike ([7]; TB# 3098T3, May 5, 2011, patient undergoing Velcade based treatment): 0.3 g/dL
M-Spike ([7]; TB# 3098T, Oct. 13, 2010, patient undergoing Velcade based treatment): 1.7 g/dL
mean tumor burden reduction (in words) [8]: mean tumor burden reduction was observed

AELPPEFAAQLRKIGDKVYC [NOXA BH3, BH3 domain peptide]
Mcl-1 Priming State (NOXA Signal) [9]: 74 (HIGH) %
Mcl-1 Priming State (NOXA Signal) [10]: 18 (LOW) %
Mcl-1 Priming State (NOXA Signal) [11]: 58 (HIGH) %
Mcl-1 Priming State (NOXA Signal) [12]: 75 (HIGH) % and 71 (HIGH) %

NLWAAQRYGRELRRMSDEFVDSFK [BAD BH3]
Kd [13]: 0.011 µM
Kd [14]: < 0.01 µM
